PMC6967030, “Apparent Lack of BRAF^V600E Derived HLA Class I Presented Neoantigens Hampers Neoplastic Cell Targeting by CD8^+ T Cells in Langerhans Cell Histiocytosis” (Frontiers in Immunology, 2020)
Ends that are not written are not given here.

Key:
Assay in all cases: Competition-based peptide-HLA class I binding assay
HLA-A*02:01 = HLA-A*02:01 (Homo sapiens, UniProt P04439, D140Y/D185E/D98H/E176V/E277Q/G131W/G231S/I119V/I121R/I166T/I218V/L300P/L318F/N151K/N90K/P208A/P217A/Q86G/Q94H/R138H/R169H/T345S); conditions: concentration that inhibits 50% binding of fluorescently-labeled standard peptide […], read-out: In vitro HLA binding affinity (IC50, nM), peptide-HLA binding assay, A*02:01
Method: Competition-based peptide-HLA class I binding assays were performed as previously described ([60]).

HLA-A*03:01 = HLA-A*03:01 (Homo sapiens, UniProt P04439); conditions: concentration that inhibits 50% binding of fluorescently-labeled standard peptide […], read-out: In vitro HLA binding affinity (IC50, nM), peptide-HLA binding assay, A*03:01
Method: (§1) Competition-based peptide-HLA class I binding assays were performed as previously described ([60]). […] The standard peptides were […] for HLA-A^*02:01 and […] for HLA-A^*03:01 and HLA-A^*11:01.

HLA-A*11:01 = HLA-A*11:01 (Homo sapiens, UniProt P04439, A114D/D185E/E176A/F33Y/L180Q/S129P/T187R); conditions: concentration that inhibits 50% binding of fluorescently-labeled standard peptide […], read-out: In vitro HLA binding affinity (IC50, nM), peptide-HLA binding assay, A*11:01
Method: as §1

| Sequence | IC50 (HLA-A*02:01) [nM] | IC50 (HLA-A*03:01) [nM] | IC50 (HLA-A*11:01) [nM] |
| --- | --- | --- | --- |
| KIGDFGLATE [KIGDFGLATE] | 86900 | – | – |
| KIGDFGLATEK | – | 672 | 45 |
| KIGDFGLATV | 40 | – | – |
| KIGDFGLATVK | – | 415 | 32 |
